According to US20260042731A1, “(2,4-DICHLOROPHENOXY)ACETIC ACID ANALOGS” (CORTEVA AGRISCIENCE LLC, priority 2022, published 2026):
Where two headings read alike, the source gives them in different places.

How the values were obtained:
[1] = tested on: Abutilon theophrasti (ABUTH), velvetleaf; test: Postemergence herbicide evaluation, growth of Abutilon theophrasti (ABUTH); assay type: in vivo; details: Abutilon theophrasti, post-emergence, percent reduction in plant size relative to untreated control, read-out: AVE. ABUTH; for pest or weed control at 280 g/ha: 280 g ae/ha; for pest or weed control at 560 g/ha: 560 g ae/ha
[2] = tested on: glyphosate resistant Conyza canadensis (L.) (ERICA), horseweed; test: Postemergence herbicide evaluation, growth of Conyza canadensis (ERICA); assay type: in vivo; details: Erigeron canadensis, post-emergence, percent reduction in plant size relative to untreated control, read-out: Ave. ERICA; for pest or weed control at 280 g/ha: 280 g ae/ha; for pest or weed control at 560 g/ha: 560 g ae/ha
[3] = tested on: Ambrosia artemisiifolia (AMBEL), common ragweed; test: Postemergence herbicide evaluation, growth of Ambrosia artemisiifolia (AMBEL); assay type: in vivo; details: Ambrosia artemisiifolia, post-emergence, percent reduction in plant size relative to untreated control, read-out: AVE. AMBEL; for pest or weed control at 280 g/ha: 280 g ae/ha; for pest or weed control at 560 g/ha: 560 g ae/ha
[4] = Volatility of compounds measured by thermogravimetric analysis (TGA); assay type: physicochemical
[5] = tested on: weeds (ABUTH, AMATA, AMBEL, CHEAL, ERICA); test: Postemergence herbicide evaluation, overall average % weed control across ABUTH, AMATA, AMBEL, CHEAL, ERICA; assay type: in vivo; details: post-emergence, average over the five weeds, read-out: Overall Ave % Weed Control; for pest or weed control at 280 g/ha: 280 g ae/ha; for pest or weed control at 560 g/ha: 560 g ae/ha
[6] = tested on: Amaranthus rudis (AMATA), tall water hemp; test: Postemergence herbicide evaluation, growth of Amaranthus rudis (AMATA); assay type: in vivo; details: Amaranthus tuberculatus, post-emergence, percent reduction in plant size relative to untreated control, read-out: Ave. AMATA; for pest or weed control at 280 g/ha: 280 g ae/ha; for pest or weed control at 560 g/ha: 560 g ae/ha
[7] = tested on: Chenopodium album (CHEAL), common lambsquarters; test: Postemergence herbicide evaluation, growth of Chenopodium album (CHEAL); assay type: in vivo; details: Chenopodium album, post-emergence, percent reduction in plant size relative to untreated control, read-out: Ave. CHEAL; for pest or weed control at 280 g/ha: 280 g ae/ha; for pest or weed control at 560 g/ha: 560 g ae/ha

Structure (SMILES) | pest or weed control at 280 g/ha ([1]; 168 h, 7 DAA) | pest or weed control at 560 g/ha ([1]; 168 h, 7 DAA) | pest or weed control at 280 g/ha ([1]; 336 h, 14 DAA) | pest or weed control at 560 g/ha ([1]; 336 h, 14 DAA) | pest or weed control at 280 g/ha ([1]; 504 h, 21 DAA) | pest or weed control at 560 g/ha ([1]; 504 h, 21 DAA) | pest or weed control at 280 g/ha ([2]; 168 h, 7 DAA) | pest or weed control at 560 g/ha ([2]; 168 h, 7 DAA) | pest or weed control at 280 g/ha ([2]; 336 h, 14 DAA) | pest or weed control at 560 g/ha ([2]; 336 h, 14 DAA) | pest or weed control at 280 g/ha ([2]; 504 h, 21 DAA) | pest or weed control at 560 g/ha ([2]; 504 h, 21 DAA) | pest or weed control at 280 g/ha ([3]; 168 h, 7 DAA) | pest or weed control at 560 g/ha ([3]; 168 h, 7 DAA) | pest or weed control at 280 g/ha ([3]; 336 h, 14 DAA) | pest or weed control at 560 g/ha ([3]; 336 h, 14 DAA) | pest or weed control at 280 g/ha ([3]; 504 h, 21 DAA) | pest or weed control at 560 g/ha ([3]; 504 h, 21 DAA) | TGA Data (rate of weight loss, volatility) [4] | pest or weed control at 280 g/ha ([5]; 168 h, 7 DAA) | further results
CC(=O)/C(C)=N/OC(=O)COc1ccc(Cl)cc1Cl [Compound A8, 3-((2-(2,4-Dichlorophenoxy)acetoxy)imino)butan-2-one] | 74% | 95% | 65% | 96% | 70% | 99% | 70% | 73% | 85% | 90% | 92% | 97% | 70% | 80% | 90% | 98% | 96% | 100% | 1 µg/min | 70% | pest or weed control at 560 g/ha ([5]; 168 h, 7 DAA): 79%; pest or weed control at 280 g/ha ([5]; 336 h, 14 DAA): 79%; pest or weed control at 560 g/ha ([5]; 336 h, 14 DAA): 90%; pest or weed control at 280 g/ha ([5]; 504 h, 21 DAA): 84%; pest or weed control at 560 g/ha ([5]; 504 h, 21 DAA): 93%; pest or weed control at 280 g/ha ([6]; 168 h, 7 DAA): 70%; pest or weed control at 560 g/ha ([6]; 168 h, 7 DAA): 75%; pest or weed control at 280 g/ha ([6]; 336 h, 14 DAA): 83%; pest or weed control at 560 g/ha ([6]; 336 h, 14 DAA): 85%; pest or weed control at 280 g/ha ([6]; 504 h, 21 DAA): 78%; pest or weed control at 560 g/ha ([6]; 504 h, 21 DAA): 87%; pest or weed control at 280 g/ha ([7]; 168 h, 7 DAA): 68%; pest or weed control at 560 g/ha ([7]; 168 h, 7 DAA): 70%; pest or weed control at 280 g/ha ([7]; 336 h, 14 DAA): 73%; pest or weed control at 560 g/ha ([7]; 336 h, 14 DAA): 80%; pest or weed control at 280 g/ha ([7]; 504 h, 21 DAA): 83%; pest or weed control at 560 g/ha ([7]; 504 h, 21 DAA): 80%
CCO/C(CC)=N\OC(=O)COc1ccc(Cl)cc1Cl [Compound A9, Ethyl N-2-(2,4-dichlorophenoxy)acetoxypropionimidate] | 80% | 80% | 80% | 96% | 89% | 95% | 70% | 70% | 91% | 84% | 99% | 97% | 73% | 83% | 93% | 93% | 92% | 96% | 0.5 µg/min | 72% | pest or weed control at 560 g/ha ([5]; 168 h, 7 DAA): 75%; pest or weed control at 280 g/ha ([5]; 336 h, 14 DAA): 82%; pest or weed control at 560 g/ha ([5]; 336 h, 14 DAA): 85%; pest or weed control at 280 g/ha ([5]; 504 h, 21 DAA): 85%; pest or weed control at 560 g/ha ([5]; 504 h, 21 DAA): 89%; pest or weed control at 280 g/ha ([6]; 168 h, 7 DAA): 65%; pest or weed control at 560 g/ha ([6]; 168 h, 7 DAA): 78%; pest or weed control at 280 g/ha ([6]; 336 h, 14 DAA): 63%; pest or weed control at 560 g/ha ([6]; 336 h, 14 DAA): 85%; pest or weed control at 280 g/ha ([6]; 504 h, 21 DAA): 60%; pest or weed control at 560 g/ha ([6]; 504 h, 21 DAA): 84%; pest or weed control at 280 g/ha ([7]; 168 h, 7 DAA): 70%; pest or weed control at 560 g/ha ([7]; 168 h, 7 DAA): 65%; pest or weed control at 280 g/ha ([7]; 336 h, 14 DAA): 83%; pest or weed control at 560 g/ha ([7]; 336 h, 14 DAA): 68%; pest or weed control at 280 g/ha ([7]; 504 h, 21 DAA): 88%; pest or weed control at 560 g/ha ([7]; 504 h, 21 DAA): 75%
